We go through 1 compound from patent publication US20240269120A1, “Method for Treating an Autoimmune and Inflammatory Disease” (Cellestia Biotech AG, priority 2021, published 2024).

For the experiment, the system named is IFNG. As to the kind of experiment: Cytokine analysis in allogeneic bone marrow transplant (LEGENDplex): IFNG. It counts as in vivo, mouse. The following applies: allo-BM+splenocyte transplanted mice, day 36, vs vehicle; FIG. 6. As for the experimental part: Allogeneic Bone marrow transplant: Recipient Balb/c mice were irradiated twice 3.75Gy (T=0 and T=4 h) in an X-ray source irradiator before transplantation at T=8 h. Treatment with antibiotics (Nopil) and analgesic (Dafalgan) was supplemented to drinking water 4 days before injection. Irradiated recipient Balb/c mice were transplanted with 5 million T cell depleted bone marrow+1 million splenocytes. Allogeneic recipient animals were treated with vehicle or 6-(4-tert-butylphenoxy)pyridin-3-amine subcutaneously at 20 mg/kg for two days immediately after allo-BM transplant, given a 10 days treatment holiday to recover body weight loss due to whole body irradiation and then treatment continued at 20 mg/kg. […] Animals were monitored for symptoms of GvHD development (severe body weight loss, alopecia and diarrhea.
Cytokine analysis in allogeneic Bone marrow transplant: The recipient animals were bled on day 36 and blood plasma was extracted to determine inflammatory cytokine concentration (IFNγ, IL-6, IL-17a) by LEGENDplex™ multiplexed assay.

The structures appear in SMILES notation.

In the case of `CC(C)(C)c1ccc(Oc2ccc(N)cn2)cc1` [6-(4-tert-butylphenoxy)pyridin-3-amine], the “IFNG in blood plasma” value is reported as “downregulation”.
